Results: paper PMC10698032, “A monoacylglycerol lipase inhibitor showing therapeutic efficacy in mice without central side effects or dependence” (Nature Communications, 2023)

What was measured:
[1] = biological target: T1, MAGL (monoacylglycerol lipase) (Homo sapiens, UniProt Q99685, K36A/L169S/L176S); test: X-ray co-crystal structure (crystal soaking), […] Å; type: binding
T1 construct: gene MGLL; tag-free hMAGL (K36A, L169S, L176S), His6-TEV tag cleaved

[2] = biological target: T2, hormone-sensitive lipase (HSL) (Homo sapiens, UniProt Q05469); test: gel-based competitive ABPP (FP-TAMRA) on HEK293T membranes expressing human HSL; type: cell-based
T2 construct: gene LIPE; full-length, C-terminal FLAG-tag, expressed in HEK293T

[3] = biological target: T3, hormone-sensitive lipase (HSL) (Mus musculus, UniProt P54310); test: MS chemical proteomics on mouse tissues; gel-based competitive ABPP on recombinant mouse HSL; type: cell-based
T3 construct: gene Lipe; full-length, C-terminal FLAG-tag, expressed in HEK293T; endogenous in mouse tissue proteomes

[4] = biological target: T4, 5-HT transporter (h) (Homo sapiens, UniProt P31645); test: biochemical; set-up: CEREP off-target panel, radioligand binding, inhibition of control specific binding; settings: read-out: % Inhibition of Control Specific Binding, Mean
T4 construct: gene SLC6A4

[5] = biological target: T5, Potassium Channel hERG (human) (Homo sapiens, UniProt Q12809); test: in vitro; set-up: CEREP off-target panel, radioligand binding, inhibition of control specific binding; settings: read-out: % Inhibition of Control Specific Binding, Mean
T5 construct: gene KCNH2
Source text: Mass spectrometry (MS)-based chemical proteomics experiments emulated these findings (Fig. 3d).

[6] = biological target: T6, 5-HT1A(h) (agonist radioligand) (Homo sapiens, UniProt P08908); test: biochemical; set-up: CEREP off-target panel, radioligand binding, inhibition of control specific binding; settings: read-out: % Inhibition of Control Specific Binding, Mean
T6 construct: gene HTR1A; agonist radioligand

[7] = biological target: T7, A2A(h) (agonist radioligand)` (Homo sapiens, UniProt P29274); test: biochemical; set-up: CEREP off-target panel, radioligand binding, inhibition of control specific binding; settings: read-out: % Inhibition of Control Specific Binding, Mean
T7 construct: gene ADORA2A; agonist radioligand

[8] = biological target: T8, CB1(h) (agonist radioligand) (Homo sapiens, UniProt P21554); test: biochemical; set-up: CEREP off-target panel, radioligand binding, inhibition of control specific binding; settings: read-out: % Inhibition of Control Specific Binding, Mean
T8 construct: gene CNR1; agonist radioligand

[9] = biological target: T9, CB2(h) (agonist radioligand) (Homo sapiens, UniProt P34972); test: biochemical; set-up: CEREP off-target panel, radioligand binding, inhibition of control specific binding; settings: read-out: % Inhibition of Control Specific Binding, Mean
T9 construct: gene CNR2; agonist radioligand

[10] = biological target: T10, D2S(h) (agonist radioligand) (Homo sapiens, UniProt P14416); test: biochemical; set-up: CEREP off-target panel, radioligand binding, inhibition of control specific binding; settings: read-out: % Inhibition of Control Specific Binding, Mean
T10 construct: gene DRD2; short isoform (D2S), agonist radioligand

[11] = biological target: T11, M1(h) (antagonist radioligand) (Homo sapiens, UniProt P11229); test: biochemical; set-up: CEREP off-target panel, radioligand binding, inhibition of control specific binding; settings: read-out: % Inhibition of Control Specific Binding, Mean
T11 construct: gene CHRM1; antagonist radioligand

[12] = biological target: T12, M2 (h) (antagonist radioligand) (Homo sapiens, UniProt P08172); test: biochemical; set-up: CEREP off-target panel, radioligand binding, inhibition of control specific binding; settings: read-out: % Inhibition of Control Specific Binding, Mean
T12 construct: gene CHRM2; antagonist radioligand

[13] = biological target: T13, M3(h) (antagonist radioligand) (Homo sapiens, UniProt P20309); test: biochemical; set-up: CEREP off-target panel, radioligand binding, inhibition of control specific binding; settings: read-out: % Inhibition of Control Specific Binding, Mean
T13 construct: gene CHRM3; antagonist radioligand

[14] = biological target: T14, V1a(h) (agonist radioligand) (Homo sapiens, UniProt P37288); test: biochemical; set-up: CEREP off-target panel, radioligand binding, inhibition of control specific binding; settings: read-out: % Inhibition of Control Specific Binding, Mean
T14 construct: gene AVPR1A; agonist radioligand

[15] = biological target: T15, μ (MOP) (h) (agonist radioligand) (Homo sapiens, UniProt P35372); test: biochemical; set-up: CEREP off-target panel, radioligand binding, inhibition of control specific binding; settings: read-out: % Inhibition of Control Specific Binding, Mean
T15 construct: gene OPRM1; agonist radioligand

[16] = biological target: T16, COX1(h) (Homo sapiens, UniProt P23219); test: biochemical; set-up: CEREP off-target panel, enzyme inhibition; settings: read-out: % Inhibition, Mean (enzymes)
T16 construct: gene PTGS1

[17] = biological target: T17, COX2(h) (Homo sapiens, UniProt P35354); test: biochemical; set-up: CEREP off-target panel, enzyme inhibition; settings: read-out: % Inhibition, Mean (enzymes)
T17 construct: gene PTGS2

[18] = biological target: Lck kinase (h) (Homo sapiens, UniProt P06239); test: biochemical; set-up: CEREP off-target panel, enzyme inhibition; settings: read-out: % Inhibition, Mean (enzymes)
[19] = biological target: PDE3A (h) (Homo sapiens, UniProt Q14432); test: biochemical; set-up: CEREP off-target panel, enzyme inhibition; settings: read-out: % Inhibition, Mean (enzymes)
[20] = biological target: T18, PDE4D2 (h) (Homo sapiens, UniProt Q08499); test: biochemical; set-up: CEREP off-target panel, enzyme inhibition; settings: read-out: % Inhibition, Mean (enzymes)
T18 construct: gene PDE4D; isoform PDE4D2

[21] = biological target: T19, acetylcholinesterase (h) (Homo sapiens, UniProt P22303); test: biochemical; set-up: CEREP off-target panel, enzyme inhibition; settings: read-out: % Inhibition, Mean (enzymes)
T19 construct: gene ACHE

[22] = biological target: T20, MAGL (monoacylglycerol lipase) (Mus musculus, UniProt O35678); test: gel-based competitive ABPP (FP-TAMRA, MB064) in mouse brain membrane proteome; type: biochemical; set-up: gene Mgll; endogenous, mouse brain proteome
T20 sequence (O35678 1-303): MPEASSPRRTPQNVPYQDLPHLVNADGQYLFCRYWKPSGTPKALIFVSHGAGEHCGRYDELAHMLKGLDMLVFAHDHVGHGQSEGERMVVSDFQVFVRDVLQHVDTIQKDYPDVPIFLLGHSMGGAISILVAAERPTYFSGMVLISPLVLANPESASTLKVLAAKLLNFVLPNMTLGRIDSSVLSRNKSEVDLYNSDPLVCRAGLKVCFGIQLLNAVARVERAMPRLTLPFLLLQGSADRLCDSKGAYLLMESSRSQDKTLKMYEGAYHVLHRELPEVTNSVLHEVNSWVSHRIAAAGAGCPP

T3 sequence (P54310 whole entry): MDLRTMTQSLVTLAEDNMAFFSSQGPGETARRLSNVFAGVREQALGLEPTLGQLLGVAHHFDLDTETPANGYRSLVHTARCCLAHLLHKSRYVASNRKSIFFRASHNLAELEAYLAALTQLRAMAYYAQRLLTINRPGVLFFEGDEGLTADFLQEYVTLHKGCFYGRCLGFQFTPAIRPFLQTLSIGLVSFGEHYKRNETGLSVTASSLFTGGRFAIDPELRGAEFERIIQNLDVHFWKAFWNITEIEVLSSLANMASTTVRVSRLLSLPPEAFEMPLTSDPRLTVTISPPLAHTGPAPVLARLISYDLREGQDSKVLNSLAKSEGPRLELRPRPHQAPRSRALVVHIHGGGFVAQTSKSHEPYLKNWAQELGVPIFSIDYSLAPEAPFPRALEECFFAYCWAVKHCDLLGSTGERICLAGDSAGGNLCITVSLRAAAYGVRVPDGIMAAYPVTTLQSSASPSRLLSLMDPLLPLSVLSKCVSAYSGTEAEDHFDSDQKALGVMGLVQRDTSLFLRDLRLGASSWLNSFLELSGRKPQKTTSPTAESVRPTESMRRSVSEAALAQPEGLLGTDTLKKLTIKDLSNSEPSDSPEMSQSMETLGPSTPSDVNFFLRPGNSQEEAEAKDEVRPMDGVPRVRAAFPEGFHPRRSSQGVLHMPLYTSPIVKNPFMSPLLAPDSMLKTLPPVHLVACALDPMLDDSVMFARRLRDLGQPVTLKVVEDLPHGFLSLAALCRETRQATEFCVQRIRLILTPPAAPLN
T14 sequence (P37288 whole entry): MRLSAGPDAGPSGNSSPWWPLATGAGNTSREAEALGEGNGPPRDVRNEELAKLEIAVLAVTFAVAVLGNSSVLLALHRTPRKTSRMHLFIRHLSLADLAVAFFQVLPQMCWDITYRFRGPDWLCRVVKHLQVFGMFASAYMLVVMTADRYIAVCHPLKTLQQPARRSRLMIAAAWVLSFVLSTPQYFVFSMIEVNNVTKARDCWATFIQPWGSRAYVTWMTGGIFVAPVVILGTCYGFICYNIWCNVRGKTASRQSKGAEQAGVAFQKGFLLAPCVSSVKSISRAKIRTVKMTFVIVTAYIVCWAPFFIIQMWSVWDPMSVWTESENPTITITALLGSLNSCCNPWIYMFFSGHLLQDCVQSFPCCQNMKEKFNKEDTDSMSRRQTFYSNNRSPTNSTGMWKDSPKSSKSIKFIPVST
Sequence of Lck kinase (h) (P06239 whole entry): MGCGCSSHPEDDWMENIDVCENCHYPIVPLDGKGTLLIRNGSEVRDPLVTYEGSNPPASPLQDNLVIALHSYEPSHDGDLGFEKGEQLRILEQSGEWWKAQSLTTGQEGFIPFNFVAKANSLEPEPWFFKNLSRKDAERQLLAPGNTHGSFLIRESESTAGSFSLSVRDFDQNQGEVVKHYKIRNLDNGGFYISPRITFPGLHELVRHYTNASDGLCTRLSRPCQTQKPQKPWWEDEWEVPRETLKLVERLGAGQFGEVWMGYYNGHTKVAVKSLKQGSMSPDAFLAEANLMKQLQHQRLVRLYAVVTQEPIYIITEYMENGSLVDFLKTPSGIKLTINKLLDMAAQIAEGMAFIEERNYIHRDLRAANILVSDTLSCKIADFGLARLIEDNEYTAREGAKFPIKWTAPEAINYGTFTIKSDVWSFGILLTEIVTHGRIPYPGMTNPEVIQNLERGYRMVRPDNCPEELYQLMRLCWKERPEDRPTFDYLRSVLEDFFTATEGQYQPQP
T1 sequence (Q99685 whole entry K36A/L169S/L176S): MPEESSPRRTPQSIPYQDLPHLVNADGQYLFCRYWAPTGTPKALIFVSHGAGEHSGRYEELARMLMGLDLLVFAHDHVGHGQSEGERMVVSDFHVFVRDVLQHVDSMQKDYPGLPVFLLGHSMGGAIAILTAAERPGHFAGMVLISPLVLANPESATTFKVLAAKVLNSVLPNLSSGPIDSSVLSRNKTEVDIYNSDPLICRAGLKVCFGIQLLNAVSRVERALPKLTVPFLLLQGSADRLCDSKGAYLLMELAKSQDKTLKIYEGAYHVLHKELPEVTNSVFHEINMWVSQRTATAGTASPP
T19 sequence (P22303 whole entry): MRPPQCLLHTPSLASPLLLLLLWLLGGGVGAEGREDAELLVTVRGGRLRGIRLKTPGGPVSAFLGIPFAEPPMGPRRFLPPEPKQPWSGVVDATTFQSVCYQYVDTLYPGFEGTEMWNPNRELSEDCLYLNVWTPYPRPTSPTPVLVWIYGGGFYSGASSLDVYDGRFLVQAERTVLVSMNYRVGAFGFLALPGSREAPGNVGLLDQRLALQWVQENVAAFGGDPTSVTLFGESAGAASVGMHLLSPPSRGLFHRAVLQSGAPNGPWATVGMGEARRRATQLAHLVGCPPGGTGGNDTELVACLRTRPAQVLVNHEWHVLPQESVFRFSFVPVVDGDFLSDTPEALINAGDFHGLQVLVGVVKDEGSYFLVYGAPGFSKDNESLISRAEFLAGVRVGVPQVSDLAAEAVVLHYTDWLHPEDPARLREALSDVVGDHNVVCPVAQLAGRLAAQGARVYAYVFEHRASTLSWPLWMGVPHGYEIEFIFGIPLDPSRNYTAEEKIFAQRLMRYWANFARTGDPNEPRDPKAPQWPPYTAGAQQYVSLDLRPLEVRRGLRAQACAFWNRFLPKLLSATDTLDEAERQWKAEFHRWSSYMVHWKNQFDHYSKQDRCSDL
T13 sequence (P20309 whole entry): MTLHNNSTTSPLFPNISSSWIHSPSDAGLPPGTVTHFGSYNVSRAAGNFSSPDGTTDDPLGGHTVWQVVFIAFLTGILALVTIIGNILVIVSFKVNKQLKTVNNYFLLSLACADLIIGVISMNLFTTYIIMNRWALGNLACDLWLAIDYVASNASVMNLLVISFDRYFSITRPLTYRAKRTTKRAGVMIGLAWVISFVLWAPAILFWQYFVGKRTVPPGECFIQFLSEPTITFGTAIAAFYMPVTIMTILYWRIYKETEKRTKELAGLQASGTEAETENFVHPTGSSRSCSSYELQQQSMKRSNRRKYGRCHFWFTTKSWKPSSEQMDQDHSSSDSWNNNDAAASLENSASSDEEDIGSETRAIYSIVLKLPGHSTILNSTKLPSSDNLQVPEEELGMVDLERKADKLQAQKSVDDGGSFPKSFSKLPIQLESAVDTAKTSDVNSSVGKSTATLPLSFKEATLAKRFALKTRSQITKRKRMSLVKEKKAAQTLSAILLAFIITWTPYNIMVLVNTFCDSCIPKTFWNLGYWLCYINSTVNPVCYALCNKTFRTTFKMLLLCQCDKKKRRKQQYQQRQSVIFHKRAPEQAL
T8 sequence (P21554 whole entry): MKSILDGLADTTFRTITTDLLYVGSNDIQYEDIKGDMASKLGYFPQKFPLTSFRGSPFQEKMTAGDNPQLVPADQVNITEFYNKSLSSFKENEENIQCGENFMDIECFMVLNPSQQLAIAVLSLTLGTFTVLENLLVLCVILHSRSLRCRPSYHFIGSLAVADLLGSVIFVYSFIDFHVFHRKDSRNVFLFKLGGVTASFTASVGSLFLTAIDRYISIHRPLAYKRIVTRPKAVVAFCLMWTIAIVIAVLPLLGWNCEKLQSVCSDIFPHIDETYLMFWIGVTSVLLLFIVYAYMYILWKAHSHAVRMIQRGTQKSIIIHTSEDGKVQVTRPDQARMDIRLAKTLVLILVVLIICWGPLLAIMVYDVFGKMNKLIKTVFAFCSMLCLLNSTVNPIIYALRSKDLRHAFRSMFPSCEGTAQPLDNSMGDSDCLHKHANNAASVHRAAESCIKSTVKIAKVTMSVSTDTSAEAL
T16 sequence (P23219 whole entry): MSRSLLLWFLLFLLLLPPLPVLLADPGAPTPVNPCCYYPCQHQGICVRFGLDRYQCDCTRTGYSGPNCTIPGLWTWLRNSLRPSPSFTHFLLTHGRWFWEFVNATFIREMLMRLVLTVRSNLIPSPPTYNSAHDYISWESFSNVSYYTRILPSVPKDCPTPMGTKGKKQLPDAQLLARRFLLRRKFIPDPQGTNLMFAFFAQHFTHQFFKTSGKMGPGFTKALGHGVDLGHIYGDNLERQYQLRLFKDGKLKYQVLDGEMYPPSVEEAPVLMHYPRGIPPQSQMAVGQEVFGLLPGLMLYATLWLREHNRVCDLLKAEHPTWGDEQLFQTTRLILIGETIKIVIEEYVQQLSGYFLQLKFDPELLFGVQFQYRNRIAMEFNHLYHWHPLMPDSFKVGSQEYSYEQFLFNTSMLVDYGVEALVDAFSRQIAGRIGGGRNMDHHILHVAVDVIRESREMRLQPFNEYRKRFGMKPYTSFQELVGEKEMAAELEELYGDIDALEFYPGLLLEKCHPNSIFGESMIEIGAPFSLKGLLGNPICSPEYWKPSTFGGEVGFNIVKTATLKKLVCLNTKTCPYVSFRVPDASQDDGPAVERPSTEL
T6 sequence (P08908 whole entry): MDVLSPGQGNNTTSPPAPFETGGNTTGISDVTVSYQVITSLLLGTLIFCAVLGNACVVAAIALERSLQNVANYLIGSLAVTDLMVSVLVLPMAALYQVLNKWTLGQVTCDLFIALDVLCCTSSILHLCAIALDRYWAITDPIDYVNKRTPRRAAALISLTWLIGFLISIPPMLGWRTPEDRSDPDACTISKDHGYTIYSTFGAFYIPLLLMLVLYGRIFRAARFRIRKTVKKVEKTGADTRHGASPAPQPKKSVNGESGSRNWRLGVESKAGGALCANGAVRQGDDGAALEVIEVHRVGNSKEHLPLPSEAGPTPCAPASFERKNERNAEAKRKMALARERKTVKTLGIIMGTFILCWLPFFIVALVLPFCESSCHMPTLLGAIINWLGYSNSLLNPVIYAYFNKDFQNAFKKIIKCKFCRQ

For `CCC(F)(F)C(=O)C[S+]([O-])c1ccc(C(=O)N2CCN(c3cccc(Cl)c3)[C@@H](C)[C@@H]2C)cc1Cl` (mixture of isomers) [compound 3, LEI-515], the “X-ray co-crystal structure (crystal soaking), 1.55 Å” value [1] was “LEI-515 was covalently attached to the catalytic Ser122 residue through its electrophilic carbonyl group as a deprotonated hemiketal”, the “gel-based competitive ABPP (FP-TAMRA) on HEK293T membranes expressing human HSL” value [2] was “confirmed by gel-based ABPP experiments using membrane fractions of HEK293T cells expressing recombinant human or mouse HSL” and the “MS chemical proteomics on mouse tissues; gel-based competitive ABPP on recombina” value [3] was “hormone-sensitive lipase (HSL) was identified as main off-target in lung, liver, and brain”. The inhibition at 10 µM [4] was 4.2%, the inhibition at 10 µM [5] was 5.8% and the inhibition at 10 µM [6] was 10.6%. The inhibition at 10 µM [7] was 11.7%, the inhibition at 10 µM [8] was 22.3% and the inhibition at 10 µM [9] was -11.9%. The inhibition at 10 µM [10] was 2.2%, the inhibition at 10 µM [11] was -29.5% and the inhibition at 10 µM [12] was -4.2%. For the same compound, the inhibition at 10 µM [13] was -19.9%, the inhibition at 10 µM [14] was 9.9% and the inhibition at 10 µM [15] was 20.4%. The inhibition at 10 µM [16] was 5.4%, the inhibition at 10 µM [17] was 9.5% and the inhibition at 10 µM [18] was -5.3%. It also gave an inhibition at 10 µM [19] of -27.2%, an inhibition at 10 µM [20] of -16.6% and an inhibition at 10 µM [21] of 4.9%. It also gave an IC50 [22] of 25 nM.
